≈ marks a conversion by molar mass, not a printed value. Calls of active or inactive are those of the source. The rule behind the calls is not given here.
Assays:
Spodoptera frugiperda [1] = experiment: Insecticidal activity against first-instar larval stage of Spodoptera frugiperda (fall armyworm) fed with compound incorporated diet assessed as mortality at 10 ug/ml after 7 days (reference value: 5.6%); format: functional; details: 168 h
Spodoptera frugiperda [2] = experiment: Acute toxicity against last larval stage of Spodoptera frugiperda (fall armyworm) assessed as survival at 5 ug/ml applied topically onto abdomen measured after 24 hr (reference value: 98.8 +/-3.5%); format: functional
Drosophila melanogaster [3] = experiment: Insecticidal activity against Drosophila melanogaster larvae fed with compound incorporated diet assessed as mortality at 50 ug/ml after 72 hr by not choice test (reference value: 0%); format: functional
Spodoptera frugiperda [4] = experiment: Insecticidal activity against first-instar larval stage of Spodoptera frugiperda (fall armyworm) fed with compound incorporated diet assessed as mortality at 5 ug/ml after 21 days (reference value: 5.6%); format: functional; details: 504 h
Spodoptera frugiperda [5] = experiment: Growth inhibitory activity against first-instar larval stage of Spodoptera frugiperda (fall armyworm) fed with compound incorporated diet assessed as weight gained at 50 ug/ml after 21 days (reference value: 100%); format: functional
Spodoptera frugiperda [6] = experiment: Acute toxicity against last larval stage of Spodoptera frugiperda (fall armyworm) assessed as mortality applied topically onto abdomen measured after 7 days; format: functional; details: topical, 168 h
Spodoptera frugiperda [7] = experiment: Growth inhibitory activity against Spodoptera frugiperda (fall armyworm) larvae fed with compound containing diet assessed as relative growth index at 5 ug/ml (reference value: 1.0 no_unit); format: functional
Spodoptera frugiperda [8] = experiment: Growth inhibitory activity against Spodoptera frugiperda (fall armyworm) larvae fed with compound containing diet assessed as reduction in survival pupation at >10 ug/ml; format: functional
Spodoptera frugiperda [9] = experiment: Growth inhibitory activity against Spodoptera frugiperda (fall armyworm) larvae fed with compound containing diet assessed as reduction in adult emergence at 35 ug/ml; format: functional
Spodoptera frugiperda [10] = experiment: Growth inhibitory activity against first-instar larval stage of Spodoptera frugiperda (fall armyworm) fed with compound incorporated diet assessed as length gained at 50 ug/ml after 21 days (reference value: 100%); format: functional
Spodoptera frugiperda [11] = experiment: Growth inhibitory activity against Spodoptera frugiperda (fall armyworm) larvae fed with compound containing diet assessed as relative growth index at 10 ug/ml (reference value: 1.0 no_unit); format: functional
Spodoptera frugiperda [12] = experiment: Growth inhibitory activity against first-instar larval stage of Spodoptera frugiperda (fall armyworm) fed with compound incorporated diet assessed as length gained at 5 ug/ml after 21 days (reference value: 100%); format: functional
Spodoptera frugiperda [13] = experiment: Growth inhibitory activity against first-instar larval stage of Spodoptera frugiperda (fall armyworm) fed with compound incorporated diet assessed as weight gained at 5 ug/ml after 21 days (reference value: 100%); format: functional
Spodoptera frugiperda [14] = experiment: Insecticidal activity against first-instar larval stage of Spodoptera frugiperda (fall armyworm) fed with compound incorporated diet assessed as mortality at 20 ug/ml after 21 days (reference value: 5.6%); format: functional; details: 504 h
Spodoptera frugiperda [15] = experiment: Growth inhibitory activity against first-instar larval stage of Spodoptera frugiperda (fall armyworm) fed with compound incorporated diet assessed as length gained at 20 ug/ml after 21 days (reference value: 100%); format: functional; set-up: scale not given: the % may be the effect or the level left
Spodoptera frugiperda [16] = experiment: Growth inhibitory activity against first-instar larval stage of Spodoptera frugiperda (fall armyworm) fed with compound incorporated diet assessed as length gained at 10 ug/ml after 7 days (reference value: 100%); format: functional
Spodoptera frugiperda [17] = experiment: Insecticidal activity against first-instar larval stage of Spodoptera frugiperda (fall armyworm) fed with compound incorporated diet assessed as mortality at 50 ug/ml after 21 days (reference value: 5.6%); format: functional; details: 504 h
Drosophila melanogaster [18] = experiment: Insecticidal activity against Drosophila melanogaster larvae fed with compound incorporated diet assessed as mortality after 72 hr by not choice test; format: functional
Spodoptera frugiperda [19] = experiment: Growth inhibitory activity against Spodoptera frugiperda (fall armyworm) larvae fed with compound containing diet assessed as relative growth index at 20 ug/ml (reference value: 1.0 no_unit); format: functional
Spodoptera frugiperda [20] = experiment: Insecticidal activity against first-instar larval stage of Spodoptera frugiperda (fall armyworm) fed with compound incorporated diet assessed as mortality at 10 ug/ml after 21 days (reference value: 5.6%); format: functional; details: 504 h
Spodoptera frugiperda [21] = experiment: Growth inhibitory activity against first-instar larval stage of Spodoptera frugiperda (fall armyworm) fed with compound incorporated diet assessed as weight gained at 10 ug/ml after 21 days (reference value: 100%); format: functional
Spodoptera frugiperda [22] = experiment: Insecticidal activity against first-instar larval stage of Spodoptera frugiperda (fall armyworm) fed with compound incorporated diet assessed as mortality at 50 ug/ml after 7 days (reference value: 5.6%); format: functional; details: 168 h
Spodoptera frugiperda [23] = experiment: Growth inhibitory activity against first-instar larval stage of Spodoptera frugiperda (fall armyworm) fed with compound incorporated diet assessed as length gained at 5 ug/ml after 7 days (reference value: 100%); format: functional; set-up: scale not given: the % may be the effect or the level left
Spodoptera frugiperda [24] = experiment: Growth inhibitory activity against Spodoptera frugiperda (fall armyworm) larvae fed with compound containing diet assessed as growth index at 35 ug/ml (reference value: 0.95 +/-0.02 no_unit); format: functional
Spodoptera frugiperda [25] = experiment: Growth inhibitory activity against first-instar larval stage of Spodoptera frugiperda (fall armyworm) fed with compound incorporated diet assessed as weight gained at 35 ug/ml after 21 days (reference value: 100%); format: functional
Spodoptera frugiperda [26] = experiment: Growth inhibitory activity against Spodoptera frugiperda (fall armyworm) larvae fed with compound containing diet assessed as reduction in pupae weight at 25 ug/ml; format: functional, organism-based
Spodoptera frugiperda [27] = experiment: Insecticidal activity against first-instar larval stage of Spodoptera frugiperda (fall armyworm) fed with compound incorporated diet assessed as mortality at 40 ug/ml after 7 days; format: functional, organism-based
Spodoptera frugiperda [28] = experiment: Growth inhibitory activity against Spodoptera frugiperda (fall armyworm) larvae fed with compound containing diet assessed as growth index at 10 ug/ml (reference value: 0.95 +/-0.02 no_unit); format: functional
Spodoptera frugiperda [29] = experiment: Insecticidal activity against first-instar larval stage of Spodoptera frugiperda (fall armyworm) fed with compound incorporated diet assessed as mortality at 35 ug/ml after 7 days (reference value: 5.6%); format: functional; details: 168 h
Spodoptera frugiperda [30] = experiment: Growth inhibitory activity against first-instar larval stage of Spodoptera frugiperda (fall armyworm) fed with compound incorporated diet assessed as weight gained at 10 ug/ml after 7 days (reference value: 100%); format: functional; set-up: scale not given: the % may be the effect or the level left
Spodoptera frugiperda [31] = experiment: Growth inhibitory activity against first-instar larval stage of Spodoptera frugiperda (fall armyworm) fed with compound incorporated diet assessed as length gained at 20 ug/ml after 7 days (reference value: 100%); format: functional
Spodoptera frugiperda [32] = experiment: Growth inhibitory activity against first-instar larval stage of Spodoptera frugiperda (fall armyworm) fed with compound incorporated diet assessed as length gained at 35 ug/ml after 7 days (reference value: 100%); format: functional
Spodoptera frugiperda [33] = experiment: Growth inhibitory activity against first-instar larval stage of Spodoptera frugiperda (fall armyworm) fed with compound incorporated diet assessed as weight gained at 20 ug/ml after 7 days (reference value: 100%); format: functional; set-up: scale not given: the % may be the effect or the level left
Spodoptera frugiperda [34] = experiment: Growth inhibitory activity against po dosed fourth-instar larvae of Spodoptera frugiperda (fall armyworm) assessed as proportion of prothetely appearance of precocious pupal structure in larvae after 48 to 72 hr; format: functional; set-up: scale not given: the % may be the effect or the level left
Spodoptera frugiperda [35] = experiment: Growth inhibitory activity against first-instar larval stage of Spodoptera frugiperda (fall armyworm) fed with compound incorporated diet assessed as length gained at 50 ug/ml after 7 days (reference value: 100%); format: functional
Spodoptera frugiperda [36] = experiment: Insecticidal activity against first-instar larval stage of Spodoptera frugiperda (fall armyworm) fed with compound incorporated diet assessed as mortality at 20 ug/ml after 7 days (reference value: 5.6%); format: functional; details: 168 h
Spodoptera frugiperda [37] = experiment: Growth inhibitory activity against first-instar larval stage of Spodoptera frugiperda (fall armyworm) fed with compound incorporated diet assessed as weight gained at 5 ug/ml after 7 days (reference value: 100%); format: functional; set-up: scale not given: the % may be the effect or the level left

SMILES	mortality at 10 µg/mL (Spodoptera frugiperda [1]) [%]	Activity (Spodoptera frugiperda [2]) [%]	mortality at 5 µg/mL (Spodoptera frugiperda [4]) [%]	Weight gain relative to control (Spodoptera frugiperda [5]) [%]	Growth_index (Spodoptera frugiperda [7])	inhibition at 35 µg/mL (Spodoptera frugiperda [9]) [%]	Length gained (% of control) (Spodoptera frugiperda [10]) [%]	Growth_index (Spodoptera frugiperda [11])	Length gained (% of control) (Spodoptera frugiperda [12]) [%]	Larval weight gain relative to control (Spodoptera frugiperda [13]) [%]	mortality at 20 µg/mL (Spodoptera frugiperda [14]) [%]	Activity (Spodoptera frugiperda [15]) [%]	Larval length gained (% of control) (Spodoptera frugiperda [16]) [%]	mortality at 50 µg/mL (Spodoptera frugiperda [17]) [%]	LC50 (Drosophila melanogaster [18]) [µg/mL]	Growth_index (Spodoptera frugiperda [19])	mortality at 10 µg/mL (Spodoptera frugiperda [20]) [%]	Weight gain (% of control) (Spodoptera frugiperda [21]) [%]	mortality at 50 µg/mL (Spodoptera frugiperda [22]) [%]	Activity (Spodoptera frugiperda [23]) [%]	other results
C=CC(C)(C)C1=C(O)C(=O)c2ccccc2C1=O	83.3	35.5	66.7	0	0.69	0	0	0.45	64.3	35.6	98	4.1	24.2	100	15.8 (≈ 65.2 µM)	0.12	41.7	27.7	100	50.8	mortality at 50 µg/mL (Drosophila melanogaster [3]): 100%; LD50 (Spodoptera frugiperda [6]): 3.64 µg/mL; inhibition (INH) (Spodoptera frugiperda [8]): 0%; Growth_index (Spodoptera frugiperda [24]): 0.09; Weight gain relative to control (Spodoptera frugiperda [25]): 7.8%; inhibition (Spodoptera frugiperda [26]): Active; mortality (Spodoptera frugiperda [27]): Active; Growth_index (Spodoptera frugiperda [28]): 0.41; mortality at 35 µg/mL (Spodoptera frugiperda [29]): 95.8%; Activity (Spodoptera frugiperda [30]): 29.3%; Length gained relative to control (Spodoptera frugiperda [31]): 20.8%; Length gained relative to control (Spodoptera frugiperda [32]): 10%; Activity (Spodoptera frugiperda [33]): 15.9%; Activity (Spodoptera frugiperda [34]): 30%; Length gain relative to control (Spodoptera frugiperda [35]): 0%; mortality at 20 µg/mL (Spodoptera frugiperda [36]): 91.7%; Activity (Spodoptera frugiperda [37]): 47.4%
C=C[C@]1(C)CC[C@H]2C(=CC[C@@H]3[C@](C)(CO)CC[C@@H]4C[C@@]432)C1	37.3	27	55.8	0	0.45	0	0	0.25	55	20.1	100	0	39	100	9.2 (≈ 32.1 µM)	0.19	68.6	10.6	100	68.7	LD50 (Spodoptera frugiperda [6]): 3.02 µg/mL; inhibition (INH) (Spodoptera frugiperda [8]): 0%; Growth_index (Spodoptera frugiperda [24]): 0.09; Weight gain relative to control (Spodoptera frugiperda [25]): 0%; inhibition (Spodoptera frugiperda [26]): Active; mortality (Spodoptera frugiperda [27]): Active; Growth_index (Spodoptera frugiperda [28]): 0.21; mortality at 35 µg/mL (Spodoptera frugiperda [29]): 98.4%; Activity (Spodoptera frugiperda [30]): 17.1%; Length gained relative to control (Spodoptera frugiperda [31]): 18.3%; Length gained relative to control (Spodoptera frugiperda [32]): 7.5%; Activity (Spodoptera frugiperda [33]): 6.8%; Activity (Spodoptera frugiperda [34]): 30%; Length gain relative to control (Spodoptera frugiperda [35]): 0%; mortality at 20 µg/mL (Spodoptera frugiperda [36]): 55.8%; Activity (Spodoptera frugiperda [37]): 25.1%
CC(C)c1ccc2c(c1)CC[C@H]1[C@](C)(CO)CCC[C@]21C [POMIFERIN A]	41.7	75	4.16	33.6	0.99	0	37.4	0.98	85.6	93.5	15	41.8	79	44	16.1 (≈ 56.2 µM)	0.96	5.6	65.8	83.3	88.3	mortality at 50 µg/mL (Drosophila melanogaster [3]): 77%; LD50 (Spodoptera frugiperda [6]): 17.5 µg/mL; Growth_index (Spodoptera frugiperda [24]): 0.71; Weight gain relative to control (Spodoptera frugiperda [25]): 38.2%; inhibition (Spodoptera frugiperda [26]): Active; Growth_index (Spodoptera frugiperda [28]): 0.93; mortality at 35 µg/mL (Spodoptera frugiperda [29]): 63%; Activity (Spodoptera frugiperda [30]): 81.3%; Length gained relative to control (Spodoptera frugiperda [31]): 64.2%; Length gained relative to control (Spodoptera frugiperda [32]): 42.5%; Activity (Spodoptera frugiperda [33]): 56.2%; Activity (Spodoptera frugiperda [34]): 30%; Length gain relative to control (Spodoptera frugiperda [35]): 33.3%; mortality at 20 µg/mL (Spodoptera frugiperda [36]): 46.8%; Activity (Spodoptera frugiperda [37]): 89.5%
C[C@H]1[C@H](C)CC[C@]2(C(=O)O)CC[C@]3(C)C(=CC[C@@H]4[C@@]5(C)CC[C@H](O)C(C)(C)[C@@H]5CC[C@]43C)[C@H]12 [URSOLIC ACID]	16.7	73	79.1	0	0.98	0	0	0.73	57.2	51.9	91.7	28.6	10.7	100	41.3 (≈ 90.4 µM)	0.29	81.3	47.4	79.1	68.6	mortality at 50 µg/mL (Drosophila melanogaster [3]): 65.2%; inhibition (INH) (Spodoptera frugiperda [8]): 0%; Weight gain relative to control (Spodoptera frugiperda [25]): 0%; inhibition (Spodoptera frugiperda [26]): Active; mortality (Spodoptera frugiperda [27]): Active; Growth_index (Spodoptera frugiperda [28]): 0.69; mortality at 35 µg/mL (Spodoptera frugiperda [29]): 46.8%; Activity (Spodoptera frugiperda [30]): 53.3%; Length gained relative to control (Spodoptera frugiperda [31]): 8.9%; Length gained relative to control (Spodoptera frugiperda [32]): 6.7%; Activity (Spodoptera frugiperda [33]): 52.5%; Activity (Spodoptera frugiperda [34]): 30%; Length gain relative to control (Spodoptera frugiperda [35]): 3.4%; mortality at 20 µg/mL (Spodoptera frugiperda [36]): 29.2%; Activity (Spodoptera frugiperda [37]): 81.5%

— ChEMBL document CHEMBL3046322, “Insect growth regulatory effects by diterpenes from Calceolaria talcana Grau & Ehrhart (Calceolariaceae: Scrophulariaceae) against Spodoptera frugiperda and Drosophila melanogaster” (2013)
